Publication PMC8769378, “Underlining the Importance of Peripheral Protic Functional Groups to Enhance the Proton Exchange of Gd-Based MRI Contrast Agents” (Inorganic Chemistry, 2021)

Tests used:
[1] = Longitudinal relaxivity r1 and relaxivity vs pH profiles; format: physicochemical
Method: The longitudinal relaxivity values (r1) for GdL1 and GdL2, at 20 MHz (0.47 T), 298 K, and pH 7.4, are 4.7 and 5.1 mM^–1 s^–1, respectively. These are typical values of the clinical MRI contrast agents, i.e., low-molecular-weight q = 1 Gd^III chelates that tumble rapidly in solution.[1],[2] In particular, these values compare well with the r1 reported for GdHPDO3A[24] and other HPDO3A-like complexes such as GdHPDO3MA[25] or the series of Gd-hydroxypropylamide-DO3A (HPADO3A, Scheme 1)[7] complexes measured at the same experimental conditions.
At pH >3, the r1 values of GdL2 decrease with the increase of pH from 6.6 mM^–1 s^–1 to reach a plateau of 5.1 mM^–1 s^–1 around pH = 7.5. A further increase of the pH results in the slight increase of r1 reaching a maximum around pH = 9.5. Finally, at pH >9.5, another small decrease in r1 is observed. On the other hand, in the case of GdL1, the r1 values are independent from the pH in the range 4.0–7.5, whereas at pH >8.0, r1 increases up to 5.2 mM^–1 s^–1. The r1 values of GdL1 were measured in the pH range 4–10 in order to avoid the hydrolysis of the methyl ester. […] Then, the overall relaxivity, r1, is given by eq 1: [drawing 1] 1 where r1^is, r1^os, and r1^pr are the relaxivity components due to the inner and outersphere water molecules and the −OH group, respectively. r1^pr can be expressed as follows:[26]−[28] [drawing 2] 2
Proton relaxation measurements (1/T1) and the resulting 1/T1 NMRD profiles were measured on a fast-field cycling (FFC) Stelar SmarTracer relaxometer over a continuum of magnetic field strengths from 0.000 24 to 0.25 T (corresponding to 0.01–10 MHz proton Larmor frequencies). The relaxometer operates under computer control with an absolute uncertainty in 1/T1 of ±1%. […] Furthermore, the real temperature inside the probe head was additionally monitored by a Fluke 52 k/j digital thermometer (Fluke, Zürich, Switzerland). The gadolinium concentration was determined by measuring the bulk magnetic susceptibility shifts of the t-BuOH ^1H NMR signal. Additional data in the 20–120 MHz frequency range were obtained with a high field relaxometer (Stelar) equipped with the HTS-110 3T metrology cryogen-free superconducting magnet. […] The pH-dependent relaxivity measurements of GdL1 and GdL2 complexes were carried out by direct titration of the samples (GdL2, 3.0 < pH < 12.5; GdL1, 4 < pH < 10). The pH was adjusted by the stepwise addition of concentrated NaOH or HCl solution. Calculations were performed with the computer program Micromath Scientist, version 2.0 (Salt Lake City, UT).

[2] = Stability constants of Gd^III complexes (out-of-cell pH potentiometry); format: physicochemical
Method: The stability and protonation constants of Ca^2+, Zn^2+, and Cu^2+ complexes formed with the L1 ligand were determined by pH potentiometric titration. The metal-to-ligand concentration ratio was 1:1 (the concentration of the ligand was generally 0.002 M). The protonation constants of the GdL1 and GdL2 complexes were determined using pH potentiometry by titrating the preprepared complexes from pH = 3.0 to pH = 12 for GdL2 and from pH = 4.0 to pH = 12 for GdL1 with 0.2 M NaOH. The stability constants of GdL2 were determined by the “out-of-cell” technique because of the slow formation reaction. The pH range of the complexation equilibria and the time needed to reach the equilibria were determined by relaxometry for the formation of GdL2. […] For the calculation of the stability constants of GdL2, besides the protonation constants of ligands, the stability constants of the diprotonated *Gd(H2L2) out-of-cage complexes (considered as intermediates) were also used as fixed values, which were calculated from the pH potentiometric titration curve of the Gd^3+–L2 system obtained in the pH range 1.7–4.0.
For the pH measurements and titrations, the Metrohm 888 Titrando titration workstation Metrohm-6.0234.110 combined electrode was used. […] For the calculation of [H^+] from the measured pH values, the method proposed by Irving et al. was used as follows.[34] […]

GdL (log KGdL, stability constant) ([2]; I = 0.15 M NaCl, 298 K) | GdH2L (log K, stability constant of the protonated *Gd(H2L) out-of-cage intermediate) ([2]; KGd(H2L)=[Gd(H2L)]/[Gd3+][H2L], 0.15 M NaCl, 25 °C) | Compound | longitudinal relaxivity r1 ([1]; 20 MHz (0.47 T), 298 K, pH 7.4) [mM^–1 s^–1] | r1 plateau ([1]; around pH = 7.5, 21 MHz, 298 K, 0.15 M NaCl) [mM^–1 s^–1] | relaxivity increase by acid-catalyzed proton exchange ([1]; pH <6) | r1 at the acidic start of the pH profile ([1]; pH about 3, 21 MHz, 298 K, 0.15 M NaCl) [mM^–1 s^–1]
 |  | O=C([O-])CN1CCN(CC(=O)[O-])CCN(CC(O)C(=O)O)CCN(CC(=O)[O-])CC1.[Gd+3] (stereo not drawn) [GdL2] | 5.1 | 5.1 | ca. 30% | 6.6
19.26 (3) | 6.73 (3) | O=C(O)CN1CCN(CC(=O)O)CCN(C[C@@H](O)C(=O)O)CCN(CC(=O)O)CC1 [L2, (R)2,2′,2″-(10-(2-Carboxy-2-hydroxyethyl)-1,4,7,10-tetraazacyclododecane-1,4,7-triyl) Triacetic Acid] |  |  |  | 
